Test results from PubChem BioAssay AID2060891 (Molecular Pharmacology Branch, DTP, NCI, 2025).

Test system: K98450-129-R-PDC complex spheroid growth, percent test/control
Assay: Anticancer human tumor K98450-129-R-PDC patient-derived colon adenocarcinoma cell line growth inhibition [RAS]
Details: for IC50: curve of first compound; for viability, T/C: stronger effect = lower value
Procedure, shortened: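 Tumour cells grown as complex spheroids with HUVEC endothelial cells and mesenchymal stem cells, treated with RAS pathway inhibitor combinations. Each agent spans half-log steps from near clinical Cmax, or 10 microM where Cmax is unknown.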

[1] = second compound 0.000949 µM, first compound 0.00316 µM
[2] = second compound 0.000949 µM, first compound 0.01 µM
[3] = second compound 0.000949 µM, first compound 0.0316 µM
[4] = second compound 0.000949 µM, first compound 0.1 µM
[5] = second compound 0.003 µM, first compound 0.00316 µM
[6] = second compound 0.003 µM, first compound 0.01 µM
[7] = second compound 0.003 µM, first compound 0.0316 µM
[8] = second compound 0.003 µM, first compound 0.1 µM
[9] = second compound 0.00949 µM, first compound 0.00316 µM
[10] = second compound 0.00949 µM, first compound 0.01 µM
[11] = second compound 0.00949 µM, first compound 0.0316 µM
[12] = second compound 0.00949 µM, first compound 0.1 µM
[13] = second compound 0.03 µM, first compound 0.00316 µM
[14] = second compound 0.03 µM, first compound 0.01 µM
[15] = second compound 0.03 µM, first compound 0.0316 µM
[16] = second compound 0.03 µM, first compound 0.1 µM
[17] = second compound 0.0949 µM, first compound 0.00316 µM
[18] = second compound 0.0949 µM, first compound 0.01 µM
[19] = second compound 0.0949 µM, first compound 0.0316 µM
[20] = second compound 0.0949 µM, first compound 0.1 µM
[21] = second compound 0.3 µM, first compound 0.00316 µM
[22] = second compound 0.3 µM, first compound 0.01 µM
[23] = second compound 0.3 µM, first compound 0.0316 µM
[24] = second compound 0.3 µM, first compound 0.1 µM
[25] = second compound 0.000949 µM, first compound 0.316 µM
[26] = second compound 0.000949 µM, first compound 1 µM
[27] = second compound 0.000949 µM, first compound 3.16 µM
[28] = second compound 0.000949 µM, first compound 10 µM
[29] = second compound 0.003 µM, first compound 0.316 µM
[30] = second compound 0.003 µM, first compound 1 µM
[31] = second compound 0.003 µM, first compound 3.16 µM
[32] = second compound 0.003 µM, first compound 10 µM
[33] = second compound 0.00949 µM, first compound 0.316 µM
[34] = second compound 0.00949 µM, first compound 1 µM
[35] = second compound 0.00949 µM, first compound 3.16 µM
[36] = second compound 0.00949 µM, first compound 10 µM
[37] = second compound 0.03 µM, first compound 0.316 µM
[38] = second compound 0.03 µM, first compound 1 µM
[39] = second compound 0.03 µM, first compound 3.16 µM
[40] = second compound 0.03 µM, first compound 10 µM
[41] = second compound 0.0949 µM, first compound 0.316 µM
[42] = second compound 0.0949 µM, first compound 1 µM
[43] = second compound 0.0949 µM, first compound 3.16 µM
[44] = second compound 0.0949 µM, first compound 10 µM
[45] = second compound 0.3 µM, first compound 0.316 µM
[46] = second compound 0.3 µM, first compound 1 µM
[47] = second compound 0.3 µM, first compound 3.16 µM
[48] = second compound 0.3 µM, first compound 10 µM
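Note: spheroids exposed to agents for seven days before the viability readout.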
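Throughout, for viability, T/C: luminescence used as a proxy for viable cell amount.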

Compound `CC(C)n1nc(-c2ccc3oc(N)nc3c2)c2c(N)ncnc21` + CCn1c(-c2cc(N3CCN(C)CC3)cnc2C(C)OC)c2c3cc(ccc31)-c1csc(n1)CC(NC(=O)C1CC1C)C(=O)N1CCCC(N1)C(=O)OCC(C)(C)C2 has an IC50 (second compound 0.000949 µM) of over 100 nM, an IC50 (second compound 0.003 µM) of over 100 nM and an IC50 (second compound 0.00949 µM) of over 100 nM. For the same compound, the IC50 (second compound 0.03 µM) was 10.1 nM, the IC50 (second compound 0.0949 µM) was under 0.316 nM and the IC50 (second compound 0.3 µM) was under 0.316 nM. It also gave a viability, T/C (second compound 0.000949 µM, first compound 0.000316 µM) of 98.9%, a viability, T/C (second compound 0.000949 µM, first compound 0.001 µM) of 80.9% and a viability, T/C [1] of 91.9%. It also gave a viability, T/C [2] of 70.7%, a viability, T/C [3] of 82.7% and a viability, T/C [4] of 70.7%. For the same compound, the viability, T/C (second compound 0.003 µM, first compound 0.000316 µM) was 88.4%, the viability, T/C (second compound 0.003 µM, first compound 0.001 µM) was 70.8% and the viability, T/C [5] was 76.1%. The viability, T/C [6] was 65.4%, the viability, T/C [7] was 71.2% and the viability, T/C [8] was 64%. For the same compound, the viability, T/C (second compound 0.00949 µM, first compound 0.000316 µM) was 80.7%, the viability, T/C (second compound 0.00949 µM, first compound 0.001 µM) was 60.1% and the viability, T/C [9] was 63.9%. The viability, T/C [10] was 57.4%, the viability, T/C [11] was 60.2% and the viability, T/C [12] was 48.1%. The viability, T/C (second compound 0.03 µM, first compound 0.000316 µM) was 44.8%, the viability, T/C (second compound 0.03 µM, first compound 0.001 µM) was 57.9% and the viability, T/C [13] was 46.3%. It also gave a viability, T/C [14] of 51.4%, a viability, T/C [15] of 36.9% and a viability, T/C [16] of 36.1%. It also gave a viability, T/C (second compound 0.0949 µM, first compound 0.000316 µM) of 19.6%, a viability, T/C (second compound 0.0949 µM, first compound 0.001 µM) of 20.5% and a viability, T/C [17] of 17.9%. The viability, T/C [18] was 15.8%, the viability, T/C [19] was 14.6% and the viability, T/C [20] was 11.1%. It also gave a viability, T/C (second compound 0.3 µM, first compound 0.000316 µM) of 9.98%, a viability, T/C (second compound 0.3 µM, first compound 0.001 µM) of 11% and a viability, T/C [21] of 10.3%. The viability, T/C [22] was 8.15%, the viability, T/C [23] was 7.88% and the viability, T/C [24] was 7.36%.
Compound `CC1(O)CCCC1n1c(=O)c(C(F)F)cc2cnc(NC3CCN(S(C)(=O)=O)CC3)nc21` (stereo not drawn) + CCn1c(-c2cc(N3CCN(C)CC3)cnc2C(C)OC)c2c3cc(ccc31)-c1csc(n1)CC(NC(=O)C1CC1C)C(=O)N1CCCC(N1)C(=O)OCC(C)(C)C2 has an IC50 (second compound 0.000949 µM) of over 10000 nM, an IC50 (second compound 0.003 µM) of over 10000 nM and an IC50 (second compound 0.00949 µM) of 2340 nM. For the same compound, the IC50 (second compound 0.03 µM) was under 31.6 nM, the IC50 (second compound 0.0949 µM) was under 31.6 nM and the IC50 (second compound 0.3 µM) was under 31.6 nM. It also gave a viability, T/C [3] of 97.3%, a viability, T/C [4] of 94.3% and a viability, T/C [25] of 95.8%. The viability, T/C [26] was 72%, the viability, T/C [27] was 72.1% and the viability, T/C [28] was 78.4%. For the same compound, the viability, T/C [7] was 81.7%, the viability, T/C [8] was 78.6% and the viability, T/C [29] was 60.3%. It also gave a viability, T/C [30] of 74.2%, a viability, T/C [31] of 68.3% and a viability, T/C [32] of 71%. The viability, T/C [11] was 77.1%, the viability, T/C [12] was 69.8% and the viability, T/C [33] was 60.5%. The viability, T/C [34] was 50.9%, the viability, T/C [35] was 50.5% and the viability, T/C [36] was 47.8%. For the same compound, the viability, T/C [15] was 47.9%, the viability, T/C [16] was 46.9% and the viability, T/C [37] was 48.4%. The viability, T/C [38] was 36.6%, the viability, T/C [39] was 35.4% and the viability, T/C [40] was 28.2%. The viability, T/C [19] was 22.6%, the viability, T/C [20] was 22.1% and the viability, T/C [41] was 18.2%. The viability, T/C [42] was 17.9%, the viability, T/C [43] was 21% and the viability, T/C [44] was 17.7%. It also gave a viability, T/C [23] of 11.4%, a viability, T/C [24] of 11.9% and a viability, T/C [45] of 12.3%. For the same compound, the viability, T/C [46] was 13.8%, the viability, T/C [47] was 12.7% and the viability, T/C [48] was 11.8%.
`CCN1CCN(Cc2ccc(Nc3ncc(F)c(-c4cc(F)c5nc(C)n(C(C)C)c5c4)n3)nc2)CC1` + CCn1c(-c2cc(N3CCN(C)CC3)cnc2C(C)OC)c2c3cc(ccc31)-c1csc(n1)CC(NC(=O)C1CC1C)C(=O)N1CCCC(N1)C(=O)OCC(C)(C)C2 was tested, and the IC50 (second compound 0.000949 µM) was over 1000 nM, the IC50 (second compound 0.003 µM) was 723 nM and the IC50 (second compound 0.00949 µM) was 73.2 nM. It also gave an IC50 (second compound 0.03 µM) of 23.7 nM, an IC50 (second compound 0.0949 µM) of under 3.16 nM and an IC50 (second compound 0.3 µM) of under 3.16 nM. It also gave a viability, T/C [1] of 75.8%, a viability, T/C [2] of 83% and a viability, T/C [3] of 90.9%. For the same compound, the viability, T/C [4] was 80.8%, the viability, T/C [25] was 65.6% and the viability, T/C [26] was 65.6%. It also gave a viability, T/C [5] of 95.1%, a viability, T/C [6] of 85.8% and a viability, T/C [7] of 72.5%. For the same compound, the viability, T/C [8] was 71%, the viability, T/C [29] was 54.1% and the viability, T/C [30] was 47.6%. The viability, T/C [9] was 79.8%, the viability, T/C [10] was 64.1% and the viability, T/C [11] was 59.2%. For the same compound, the viability, T/C [12] was 47.7%, the viability, T/C [33] was 38.6% and the viability, T/C [34] was 33.2%. For the same compound, the viability, T/C [13] was 49.8%, the viability, T/C [14] was 51.8% and the viability, T/C [15] was 49.7%. The viability, T/C [16] was 27.2%, the viability, T/C [37] was 24.4% and the viability, T/C [38] was 25.9%. It also gave a viability, T/C [17] of 18.8%, a viability, T/C [18] of 18.5% and a viability, T/C [19] of 17.3%. It also gave a viability, T/C [20] of 14.1%, a viability, T/C [41] of 18.4% and a viability, T/C [42] of 22.8%. It also gave a viability, T/C [21] of 10.8%, a viability, T/C [22] of 13.6% and a viability, T/C [23] of 11.3%. The viability, T/C [24] was 12.7%, the viability, T/C [45] was 16.3% and the viability, T/C [46] was 23.1%.
`C[C@@H](NC(=O)c1ncnc(N)c1Cl)c1ncc(C(=O)Nc2cc(C(F)(F)F)c(Cl)cn2)s1` + CCn1c(-c2cc(N3CCN(C)CC3)cnc2C(C)OC)c2c3cc(ccc31)-c1csc(n1)CC(NC(=O)C1CC1C)C(=O)N1CCCC(N1)C(=O)OCC(C)(C)C2 showed an IC50 (second compound 0.000949 µM) of over 10000 nM, an IC50 (second compound 0.003 µM) of over 10000 nM and an IC50 (second compound 0.00949 µM) of over 10000 nM. It also gave an IC50 (second compound 0.03 µM) of over 10000 nM, an IC50 (second compound 0.0949 µM) of under 31.6 nM and an IC50 (second compound 0.3 µM) of under 31.6 nM. It also gave a viability, T/C [3] of 105%, a viability, T/C [4] of 103% and a viability, T/C [25] of 106%. The viability, T/C [26] was 97.2%, the viability, T/C [27] was 103% and the viability, T/C [28] was 90.5%. It also gave a viability, T/C [7] of 105%, a viability, T/C [8] of 88.8% and a viability, T/C [29] of 88.4%. It also gave a viability, T/C [30] of 90.7%, a viability, T/C [31] of 110% and a viability, T/C [32] of 77.1%. The viability, T/C [11] was 76.1%, the viability, T/C [12] was 70.7% and the viability, T/C [33] was 81.8%. It also gave a viability, T/C [34] of 88.8%, a viability, T/C [35] of 75.3% and a viability, T/C [36] of 62.4%. The viability, T/C [15] was 57.7%, the viability, T/C [16] was 62.3% and the viability, T/C [37] was 74.1%. For the same compound, the viability, T/C [38] was 67.3%, the viability, T/C [39] was 73.9% and the viability, T/C [40] was 51.5%. It also gave a viability, T/C [19] of 25.3%, a viability, T/C [20] of 31.9% and a viability, T/C [41] of 37%. For the same compound, the viability, T/C [42] was 31.9%, the viability, T/C [43] was 37.3% and the viability, T/C [44] was 17.8%. The viability, T/C [23] was 11.4%, the viability, T/C [24] was 14.6% and the viability, T/C [45] was 16.4%. It also gave a viability, T/C [46] of 13.5%, a viability, T/C [47] of 16% and a viability, T/C [48] of 11%.
